Test results taken from US20060134630A1, “Method for screening for an antimicrobial polypeptide” (Novozymes A/S, priority 2002, published 2006).

What was measured:
Fusarium longypes [1] = assay: Growth inhibition of Fusarium longypes by AFP diffused into solid media (filter removed); format: cell-based; parameters: key: +: whether or not a clearing zone is present in the top-layer; −: whether or not a clearing zone is present in the top-layer; settings: Fusarium longypes top-layer, acetate filter removed, 0.1% arabinose, 3 days room temperature
Description: The method used in this example is similar to the method described in example 14 with the difference that in this example the acetate filter containing the E.coli origami cells is removed from the arabinose plate before it is overlaid with the fungus Fusarium longypes which is used as an indicator strain.
Additionally, this example is very similar to example 4, with the exception that in the present example AFP is the antimicrobial polypeptide (instead of Plectasin in example 4) and Fusarium longypes is the indicator cells (instead of Bacillus subtilis in example 4). As described in example 14, E. coli origami cells were transformed with pHHA900-AFP and pHHA, respectively and cultured overnight at 37 degrees C on LB-agar plates containing tetracycline (tet), kanamycin (kan) and ampicillin (amp) to select for viable E.coli origami cells comprising said constructs. Two viable E.coli origami colonies containing each of the constructs were selected and used to inoculate a LB-agar plate with tet, kan and amp before culturing said plate for 3 days at 37 degrees C. A cellulose acetate filter was placed on top of the plate and the colonies were striped off with the filter. The filter was then placed on a new LB-agar plate containing 0.1% arabinose with the colonies facing up to induce expression of the AFP. The filter-agar, 0.1% arabinose plate was incubated overnight at 37 degrees C. […]

Fusarium longypes [2] = assay: Growth inhibition of Fusarium longypes by AFP (filter-agar plate treated with chloroform); format: cell-based; parameters: key: +: whether or not a clearing zone is present in the top-layer; −: whether or not a clearing zone is present in the top-layer; settings: Fusarium longypes top-layer over origami colonies, 0.1% arabinose, 3 days room temperature
Description: E. coli origami cells were transformed with pHHA900-AFP and pHHA, respectively and cultured overnight at 37 degrees C. on LB-agar plates containing tetracycline (tet), kanamycin (kan) and ampicillin (amp) to select for viable origami cells comprising said constructs. Two viable origami colonies containing each of the constructs were selected and used to inoculate 3 other LB-agar plates with tet, kan and amp before culturing said plates for 3 days at 37 degrees C. A cellulose acetate filter (Schleider & Schull) was placed on top of each of the plates and the colonies were striped off with the filters. The filters were then place on new LB-agar plates containing 0.1% arabinose with the colonies facing up to induce expression of the AFP. The filter-agar, 0.1% arabinose plates were incubated overnight at 37 degrees C. before treating them with chloroform as described in example 1. After this a top-layer of 6 ml agar comprising approximately […] Fusarium longypes were poured on top of the chloroform treated filter-agar plate. The plates with top-layer were then incubated for 3 days at room temperature. The pink color of the Fusarium longypes mycelium facilitated the detection of the clearing zones in the top layer. […]

pHHA900-AFP: antifungal protein derived from Aspergillus giganteus, expressed in the cytoplasm (ATYNGKCYKKDNICKYKAQSGKTAICKCYVKKCPRDGAKCEFDSYKGKCYC; UniProt P17737 44-94, looked up)
Clearing zone +/− (Fusarium longypes [1]): +
Clearing zone +/−, Plate treated with chloroform (Fusarium longypes [2]): +
